Laboratory results published in patent US11447566B2, “Anti-tissue factor antibodies, antibody-drug conjugates, and related methods” (Iconic Therapeutics, Inc., priority 2018, dated 2022).
Square brackets hold non-standard residues; d marks the D form. Peptide text beside a SMILES is read from it. * marks the point of attachment. Dolaproine = CO[C@@H]([C@@H]1CCCN1)[C@@H](C)C(=O)O; Dil = CC[C@H](C)[C@H](NC)[C@@H](CC(=O)O)OC; X1 = C[C@@H](N*)[C@@H](O)c1ccccc1; NMeV = CN[C@H](C(=O)O)C(C)C

Key:
[1] = system: human thrombin generation (relipidated TF, normal pooled plasma); experiment: Thrombin generation assay (TGA); assay type: biochemical; settings: 100 nM antibody, Example 18
Procedure: (§1) The TGA assay was performed using the calibrated-automated-thrombogram (CAT) instrument manufactured and distributed by STAGO. The test method design was equivalent to a standard CAT assay measurement, except that the plasma source was NPP in citrate/CTI. […] Relipidated TF was added to a 96-well assay plate, followed by addition of the antibody/NPP mixture. After a 10-min incubation or directly after combining the relipidated TF with antibody/NPP, thrombin generation was initiated by the addition of calcium and the thrombin substrate. The STAGO software was used to report the following parameters: Peak IIa (highest thrombin concentration generated [nM]); Lag Time (time to IIa generation [min]); ETP (endogenous thrombin potential, area under the curve [nM×min]); and ttPeak (time to Peak IIa [min]).
as §1, with “was normal pooled plasma (NPP)” for “was NPP”, “in citrate supplemented with corn trypsin inhibitor (citrate/CTI).” for “in citrate/CTI.”
TGA assay was performed using the calibrated-automated-thrombogram (CAT) instrument manufactured and distributed by STAGO (Diagnostica Stago SAS, Asnieres sur Seine, France). […] The anti-TF antibodies were titrated at 0, 10, 50 and 100 nM and mixed with NPP in citrate/CTI. Relipidated TF was added to a 96-well assay plate, followed by addition of the antibody/NPP mixture. After a 10-min incubation or directly after combining the relipidated TF with antibody/NPP, thrombin generation was initiated by the addition of calcium and the thrombin substrate. The STAGO software was used to report the following parameters: Peak IIa (highest thrombin concentration generated on the thrombin generation curve [nM]); Lag Time (time from assay start to the moment 10 nM of thrombin is formed [min]); ETP (endogenous thrombin potential, area under the curve [nM×min]); and ttPeak (time from assay start to Peak IIa [min]). […] As used herein, the term “thrombin generation assay” (TGA) refers to the TGA used in this example.

[2] = system: HUVECs; experiment: G2/M arrest (phospho-Histone H3), HUVECs; assay type: cell-based, human; settings: 24 h treatment, with or without inflammatory cytokines
Procedure: (§2) To further understand the resistance of endothelial cells to anti-TF ADCs, cell cycle progression was evaluated 24 h after addition of the cytokines and TF-specific ADCs. Arrest at the G2/M phase of the cell cycle was analyzed as previously described in Theunissen et al, Methods Enzymol, 2006, 409:251-284. Briefly, low-passage HUVECs (Lifeline Cell Technologies, Frederick, Md., USA), propagated in VascuLife VEGF-Mv Endothelial media (Lifeline Cell Technologies), and HCT-116 cells were seeded on 12-well plates. The next day, media was removed and replaced with fresh media (no cytokines) or media containing 5 ng/mL IL1-beta, 25 ng/mL TNF-alpha and 50 ng/mL VEGF (with cytokines). A titration of MMAE-linked ADCs or free MMAE was added to the cells. After 24 h of treatment, cells were fixed in ice-cold 70% ethanol. Subsequently, the cells were washed with flow cytometry buffer (PBS, 1% FBS, 0.1% Triton) and stained for 1 h with a 1:100 dilution of phospho-Histone H3 (Ser10) (D2C8 PE Conjugate, Cell Signaling Technology). After 2 washes, the cells were treated for 20 min with 100 μg/mL PureLink RNAse A (ThermoFisher Scientific), followed by the addition of the viability dye TO-PRO-3 Iodide (ThermoFisher Scientific). 40,000 events were collected on a Novocyte flow cytometer. In the Flowjo data analysis software cell doublets and aneuploid cells were excluded. […]

[3] = system: HCT-116 cells; experiment: G2/M arrest (phospho-Histone H3), HCT-116 cells; assay type: cell-based, human; settings: 24 h treatment
Procedure: as §2

[4] = system: gastric adenocarcinoma PDX; experiment: Gastric adenocarcinoma patient-derived xenograft model; assay type: in vivo, athymic nude mice; settings: end of the study (day 46)
Procedure: TF-positive PDX models were performed in athymic nude mice (Envigo, Indianapolis, Ind.) to evaluate the efficacy of the ADCs in vivo. The animals' care was in accordance with institutional guidelines. Study animals were implanted unilaterally on the left flank with tumor fragments.
Animals were removed from study and euthanized once tumor size reached 1200 mm^3 or skin ulceration was evident. In addition, the MTV curve for the treatment group in question was no longer shown once an animal was removed from study due to size. TGI and statistical analyses were conducted in the same manner as for the CDX studies.

10H10: previously described TF-specific antibody (Versteeg et al., 2008; Teplyakov et al., 2017) [reference compound]
reduction of the peak IIa concentration ([1]; 10 min antibody pre-incubation): 48%
reduction of the peak IIa concentration ([1]; without antibody pre-incubation): 34%

CC[C@H](C)[C@@H]([C@@H](CC(=O)N1CCC[C@H]1[C@H](OC)[C@@H](C)C(=O)N[C@H](C)[C@@H](O)c1ccccc1)OC)N(C)C(=O)[C@@H](NC(=O)[C@@H](NC)C(C)C)C(C)C [MMAE, monomethyl auristatin E] (H-[NMeV]V[Dil][Dolaproine]-X1)
G2/M arrest, pH3-positive HUVECs [2]: increase the phosphorylation of histone H3 to a similar extent
G2/M arrest, pH3-positive HCT-116 cells [3]: increase the phosphorylation of histone H3 to a similar extent

TF-011 ADC
complete responders [4]: 1 animals
tumor-free survivors [4]: 5 animals
